[dFC] = 2'-deoxy-2',2'-difluorocytidine (gemcitabine) nucleoside, linked at the 5' end of the ODN; d = 2'-deoxy (DNA)
Key:
[1] = Stability studies in pyridine and ammonia (TLC, Rf, UV, HPLC); format: physicochemical; details: 37° C., 18 hrs
Experimental: The 2′-deoxy, 2′,2′-difluorocytidine derivatives, N-Bz-Gemcitabine and 5′-O-DMT-(N-bz) Gemcitabine prepared as above, were tested for their stability.

[2] = tested on: human colon adenocarcinoma cancerous cells HT29; assay: Flow cytometric DNA cell cycle profile, killing of colon cancer cells; format: cell-based; details: for killing colon cancer cells HT29, compared with Gemcitabine (Gemzar) alone at equivalent dosages: 20 and 50 ng/ml Gemzar equivalent, 1 hour treatment, then 47 hours in normal medium without drugs, FIG. 13
[3] = tested on: human colon normal cells CCD112CoN; assay: Flow cytometric DNA cell cycle profile, killing of colon normal cells; format: cell-based; details: 20 and 50 ng/ml Gemzar equivalent; 1 hour treatment, then 47 hours in normal medium without drugs; FIG. 14
Experimental: Monolayer cultures of human colon adenocarcinoma cancerous cells HT29 (American Type Culture Collection HTB-38), and human colon normal cells CCD112CoN (American Type Culture Collection CRL-1541) were grown in DMEM growth medium, or Dulbecco's modified Eagle's medium (DMEM; Sigma Chemical Co., St. Louis, Mo.) containing 10% fetal bovine serum (FBS; Biological Industries, Kibbutz, Israel). Incubation was in 10% CO2 at 37° C.
Gemzar (MW 299.5), or 2′-deoxy, 2′,2′-difluorocytidine hydrochloride for injection, as manufactured by Lilly France S.A., Fegersheim, France). Gemzar-ODNs were 2′-deoxy, 2′,2′-difluorocytidine (dFC, or difluorodeoxycitidine) linked to 4 oligodeoxynucleotide (ODN) sequences (synthesized by Chemgenes Corp, Wilmington, Mass.) as follows:
Aqueous stock solutions were prepared at the Gemzar or Gemzar-equivalent concentration of 0.2 mg/ml. Parallel monolayer cultures in log phase growth were treated for 1 hr at 37° C. with a final concentration of 0, 20 and 50 ng/ml of Gemzar or Gemzar equivalent from each of the 4 sequences of Gemzar-ODN that were synthesized. After the 1 hr pulse treatment with either Gemzar or Gemzar-ODNs, the cell cultures were reincubated for another 47 hr at 37° C. in normal DMEM growth medium without Gemzar or Gemzar-ODN. Control cultures were similar parallel cultures and had similar 1 hr and 47 hr reincubations, except without any Gemzar or Gemzar-ODN content. After the 47 hr reincubation, all cultures were evaluated at the same time for their DNA cell cycle profile using flow cytometry.
This was evaluated as previously described (Cell Death Differ. 4: 213-223, 1997; Exp. Cell Res. 240: 293-304, 1998). Propidium iodide (PI) stock solution was prepared at 50 ug/ml in tris buffered saline (1.21 mg/ml Tris, 0.584 mg/ml NaCl). Ribonuclease A (RNase A) was freshly added to the PI stock solution at 6 mg/ml immediately before use. Cells were harvested by scraping with a cell scraper and triturated to obtain a single cell suspension using a hypodermic syringe fitted with a 21-gauge needle. Cells were spun down at 1000 g for 5 min, and washed once in 5 ml phosphate buffered saline (PBS A, Oxoid, London, UK). Cells were then permeabilized by resuspending in 1% Bouin's fluid (15 parts 1.2% saturated aqueous picric acid, 5 parts formalin, 1 part glacial acetic acid) in PBS. Cells were repelleted and suspend in the PI-RNase for 1 hour over ice, before flow cytometric evaluation at ex/em 488/590 nm and 20,000 counts sample size. The Coulter Epics Elite ESP flow cytometer and Workstation program version 4.01 (Coulter Electronics, Hialeah, Fla.) were used with WinMDI version 2.8 (Scripps Research Institute, La Jolla, Calif.

Row | Molecule | killing colon normal cells CCD-112CO, compared with Gemcitabine (Gemzar) alone at equivalent dosages [3] | killing colon cancer cells HT29, compared with Gemcitabine (Gemzar) alone at equivalent dosages [2] | also measured
1 | O=C(Nc1ccn([C@@H]2O[C@H](CO)[C@@H](O)C2(F)F)c(=O)n1)c1ccccc1 [Compound II, N-Benzoyl-2′-deoxy, 2′,2′-difluorocytidine] | – | – | stability (breakdown) in pyridine and ammonia [1]: converted into 2′-deoxy, 2′,2′-difluorocytidine completely without any deterioration and byproduct formation; stability (breakdown) in pyridine and ammonia ([1]; listed as N-Bz-Gemcitabine): no breakdown of Gemcitabine, other than loss of the protecting group
2 | COc1ccc(C(OC[C@H]2O[C@@H](n3ccc(NC(=O)c4ccccc4)nc3=O)C(F)(F)[C@@H]2O)(c2ccccc2)c2ccc(OC)cc2)cc1 [Compound III, 5′-O-DMT (N-Bz) 2′-deoxy, 2′,2′-difluorocytidine] | – | – | stability (breakdown) in pyridine and ammonia [1]: no breakdown of Gemcitabine, other than loss of the protecting group
3 | Cl.Nc1ccn([C@@H]2O[C@H](CO)[C@@H](O)C2(F)F)c(=O)n1 [Gemzar, 2′-deoxy, 2′,2′-difluorocytidine hydrochloride, reference compound] | – | – | difference between the killing of cancer cells and normal cells ([2]; HT29 (FIG. 13) compared with CCD-112CO (FIG. 14) at equivalent dosages): only minimal difference
4 | dFC GGA CG (NGGACG; sugars from the 5' end [dFC]1 d5, backbone, methylation of C and the base at N not given here) [GEMCITABINE-ODN-Seq. I.D.#7, Gemzar-ODN] | more effectively than by treatment with GEMCITABINE alone | much more effectively than by treatment with GEMCITABINE alone | –
5 | dFC GGA CGT GGA ACG (NGGACGTGGAACG; sugars from the 5' end [dFC]1 d12, backbone, methylation of C and the base at N not given here) [GEMCITABINE-ODN-Seq. I.D.#9, Gemzar-ODN] | more effectively than by treatment with GEMCITABINE alone | much more effectively than by treatment with GEMCITABINE alone | –
6 | dFC GGA GCT GGA ACG (NGGAGCTGGAACG; sugars from the 5' end [dFC]1 d12, backbone, methylation of C and the base at N not given here) [GEMCITABINE-ODN-Seq. I.D.#10, Gemzar-ODN] | more effectively than by treatment with GEMCITABINE alone | much more effectively than by treatment with GEMCITABINE alone | –
7 | dFC GTG GAA CG (NGTGGAACG; sugars from the 5' end [dFC]1 d8, backbone, methylation of C and the base at N not given here) [GEMCITABINE-ODN-Seq. I.D.#8, Gemzar-ODN] | more effectively than by treatment with GEMCITABINE alone | much more effectively than by treatment with GEMCITABINE alone | –

— US7846436B2, “Oligonucleotides and related compounds” (ChemGenes Corporation, priority 2003, dated 2010)
